Data: ChEMBL document CHEMBL1201862, “PubChem BioAssay data set” (2004)
Activity calls are given as the source filed them.

Tests used:
[1] = target: T1, Microphthalmia-associated transcription factor (Homo sapiens, UniProt O75030); assay: TRPM1 promoter luciferase signal decrease, dose response, MITF inhibitor project, cell-based, SK-MEL-5, cherry-picked, set 3 (AID 493073); format: functional
T1 sequence (O75030 whole entry): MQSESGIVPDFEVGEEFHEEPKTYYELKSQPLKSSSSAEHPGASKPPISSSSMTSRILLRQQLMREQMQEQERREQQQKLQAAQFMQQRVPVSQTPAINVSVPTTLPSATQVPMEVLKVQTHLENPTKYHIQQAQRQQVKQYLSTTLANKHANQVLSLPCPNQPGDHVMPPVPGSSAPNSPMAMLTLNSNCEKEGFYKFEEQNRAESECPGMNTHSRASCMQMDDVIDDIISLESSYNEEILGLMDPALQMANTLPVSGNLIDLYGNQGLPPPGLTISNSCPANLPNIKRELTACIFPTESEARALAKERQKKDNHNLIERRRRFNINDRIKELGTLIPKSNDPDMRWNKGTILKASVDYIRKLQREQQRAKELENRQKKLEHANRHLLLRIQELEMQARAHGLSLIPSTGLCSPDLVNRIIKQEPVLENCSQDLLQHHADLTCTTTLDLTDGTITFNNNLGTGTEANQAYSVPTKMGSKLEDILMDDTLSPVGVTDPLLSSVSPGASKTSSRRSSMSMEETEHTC

cells = format: functional
[2] = target: FAD-linked sulfhydryl oxidase ALR (Homo sapiens, UniProt P55789); assay: inhibitors of human ALR sulfhydryl oxidase, dose response, biochemical, H2O2 detection, luminescence, cherry-pick (AID 493248)
Chain of FAD-linked sulfhydryl oxidase ALR (P55789 whole entry): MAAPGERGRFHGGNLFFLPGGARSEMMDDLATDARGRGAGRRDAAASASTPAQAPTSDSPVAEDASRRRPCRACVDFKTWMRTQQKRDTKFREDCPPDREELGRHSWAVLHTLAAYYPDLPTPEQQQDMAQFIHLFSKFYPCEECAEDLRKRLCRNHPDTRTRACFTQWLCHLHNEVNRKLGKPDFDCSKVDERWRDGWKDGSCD

[3] = THP-1 cell cytotoxicity, dose response, cytotoxicity control for non-replicating M. tuberculosis project (AID 489025); format: functional
[4] = Luminescence Cell-Based Dose Retest to Confirm Inhibitors of Cancer Stem Cells. [Related pubchem assays (depositor defined):AID2717, AID2721]; format: functional; settings: Homo sapiens
A-375 = assay: A375 melanoma cell viability reduction, dose response, counter-screen for MITF modulator project, cherry-pick samples, set 2 (AID 540335); format: functional, cell-based; settings: Homo sapiens
[5] = target: T2, Histone-lysine N-methyltransferase NSD2 (Homo sapiens, UniProt O96028); format: biochemical
T2 sequence (O96028 whole entry): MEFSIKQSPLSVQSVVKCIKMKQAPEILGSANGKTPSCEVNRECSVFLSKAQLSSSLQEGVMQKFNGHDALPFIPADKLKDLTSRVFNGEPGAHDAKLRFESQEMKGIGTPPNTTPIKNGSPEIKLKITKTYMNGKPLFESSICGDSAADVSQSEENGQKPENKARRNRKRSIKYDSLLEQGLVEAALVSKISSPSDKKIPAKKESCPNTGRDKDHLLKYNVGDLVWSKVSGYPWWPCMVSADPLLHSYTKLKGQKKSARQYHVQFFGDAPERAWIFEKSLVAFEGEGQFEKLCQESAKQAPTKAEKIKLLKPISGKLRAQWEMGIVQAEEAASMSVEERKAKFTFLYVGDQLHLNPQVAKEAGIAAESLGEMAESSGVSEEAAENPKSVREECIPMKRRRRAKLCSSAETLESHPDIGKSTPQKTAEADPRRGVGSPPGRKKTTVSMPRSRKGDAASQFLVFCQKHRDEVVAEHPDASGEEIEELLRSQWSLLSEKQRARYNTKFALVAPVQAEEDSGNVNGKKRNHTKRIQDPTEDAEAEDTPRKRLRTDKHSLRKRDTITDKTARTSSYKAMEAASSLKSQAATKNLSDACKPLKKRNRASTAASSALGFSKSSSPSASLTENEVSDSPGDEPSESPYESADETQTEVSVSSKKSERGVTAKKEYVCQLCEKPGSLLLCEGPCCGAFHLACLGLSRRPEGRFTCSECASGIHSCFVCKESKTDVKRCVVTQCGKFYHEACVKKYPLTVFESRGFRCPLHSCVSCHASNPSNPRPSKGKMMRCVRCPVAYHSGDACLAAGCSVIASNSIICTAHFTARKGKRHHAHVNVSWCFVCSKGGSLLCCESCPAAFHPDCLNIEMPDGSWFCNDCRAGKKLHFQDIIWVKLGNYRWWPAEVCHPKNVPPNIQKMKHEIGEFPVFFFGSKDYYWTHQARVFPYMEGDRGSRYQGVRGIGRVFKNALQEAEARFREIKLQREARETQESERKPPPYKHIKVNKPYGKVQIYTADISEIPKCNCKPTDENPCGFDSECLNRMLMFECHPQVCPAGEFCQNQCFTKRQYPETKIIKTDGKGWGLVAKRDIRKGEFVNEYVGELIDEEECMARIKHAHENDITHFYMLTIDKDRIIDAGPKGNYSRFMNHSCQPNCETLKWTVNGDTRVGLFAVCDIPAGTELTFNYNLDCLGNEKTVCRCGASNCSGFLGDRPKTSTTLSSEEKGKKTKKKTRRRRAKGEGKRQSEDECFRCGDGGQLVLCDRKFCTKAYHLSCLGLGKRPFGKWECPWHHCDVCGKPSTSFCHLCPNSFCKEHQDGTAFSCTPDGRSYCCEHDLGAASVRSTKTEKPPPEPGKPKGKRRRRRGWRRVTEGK

[6] = target: Dual specificity protein kinase CLK1 (Homo sapiens, UniProt P49759); assay: CLK1 kinase inhibitors, off-target check, dose response, selectivity assay for Dyrk1A inhibitor project, biochemical, cherry-picked samples (AID 588811)
Chain of Dual specificity protein kinase CLK1 (P49759 whole entry): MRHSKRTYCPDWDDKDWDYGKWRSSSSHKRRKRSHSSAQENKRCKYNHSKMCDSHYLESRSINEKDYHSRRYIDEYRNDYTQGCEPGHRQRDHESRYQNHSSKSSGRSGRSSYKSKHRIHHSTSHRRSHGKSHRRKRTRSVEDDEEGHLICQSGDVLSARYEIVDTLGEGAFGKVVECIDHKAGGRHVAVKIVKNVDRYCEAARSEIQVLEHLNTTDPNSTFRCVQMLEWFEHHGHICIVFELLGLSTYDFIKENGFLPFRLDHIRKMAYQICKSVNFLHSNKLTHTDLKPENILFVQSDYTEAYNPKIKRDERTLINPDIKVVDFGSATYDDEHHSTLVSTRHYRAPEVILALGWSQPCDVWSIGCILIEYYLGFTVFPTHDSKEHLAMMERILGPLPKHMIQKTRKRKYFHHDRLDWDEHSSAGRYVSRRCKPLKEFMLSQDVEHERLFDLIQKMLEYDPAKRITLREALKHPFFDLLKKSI

[7] = target: T3, Adenosylmethionine-8-amino-7-oxononanoate aminotransferase (Mycobacterium tuberculosis, UniProt P9WQ81); assay: Mycobacterium tuberculosis BioA enzyme inhibitor Measured in Biochemical System Using Plate Reader - 2163-02_Inhibitor_Dose_CherryPick_Activity.; format: functional, Mycobacterium tuberculosis UT205
T3 sequence (P9WQ81 whole entry): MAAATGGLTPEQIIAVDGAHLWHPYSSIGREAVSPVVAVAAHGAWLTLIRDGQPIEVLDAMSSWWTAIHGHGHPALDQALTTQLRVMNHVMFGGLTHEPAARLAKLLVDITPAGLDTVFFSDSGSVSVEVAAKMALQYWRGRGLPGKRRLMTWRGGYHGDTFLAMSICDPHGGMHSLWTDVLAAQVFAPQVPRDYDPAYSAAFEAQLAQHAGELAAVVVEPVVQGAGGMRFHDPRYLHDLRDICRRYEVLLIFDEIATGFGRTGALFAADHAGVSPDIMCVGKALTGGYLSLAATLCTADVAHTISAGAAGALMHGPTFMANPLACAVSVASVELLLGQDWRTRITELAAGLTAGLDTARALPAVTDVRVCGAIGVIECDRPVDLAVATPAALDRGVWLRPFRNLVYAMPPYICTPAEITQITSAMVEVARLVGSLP

[8] = target: Ras and Rab interactor 1/Tyrosine-protein kinase ABL1 (Homo sapiens, UniProt P00519+Q13671); format: functional;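 further: biochemical TR-FRET dose-response test measuring inhibition of binding between Rin1 and Abl proteins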
Chain of Ras and Rab interactor 1/Tyrosine-protein kinase ABL1 (P00519 whole entry): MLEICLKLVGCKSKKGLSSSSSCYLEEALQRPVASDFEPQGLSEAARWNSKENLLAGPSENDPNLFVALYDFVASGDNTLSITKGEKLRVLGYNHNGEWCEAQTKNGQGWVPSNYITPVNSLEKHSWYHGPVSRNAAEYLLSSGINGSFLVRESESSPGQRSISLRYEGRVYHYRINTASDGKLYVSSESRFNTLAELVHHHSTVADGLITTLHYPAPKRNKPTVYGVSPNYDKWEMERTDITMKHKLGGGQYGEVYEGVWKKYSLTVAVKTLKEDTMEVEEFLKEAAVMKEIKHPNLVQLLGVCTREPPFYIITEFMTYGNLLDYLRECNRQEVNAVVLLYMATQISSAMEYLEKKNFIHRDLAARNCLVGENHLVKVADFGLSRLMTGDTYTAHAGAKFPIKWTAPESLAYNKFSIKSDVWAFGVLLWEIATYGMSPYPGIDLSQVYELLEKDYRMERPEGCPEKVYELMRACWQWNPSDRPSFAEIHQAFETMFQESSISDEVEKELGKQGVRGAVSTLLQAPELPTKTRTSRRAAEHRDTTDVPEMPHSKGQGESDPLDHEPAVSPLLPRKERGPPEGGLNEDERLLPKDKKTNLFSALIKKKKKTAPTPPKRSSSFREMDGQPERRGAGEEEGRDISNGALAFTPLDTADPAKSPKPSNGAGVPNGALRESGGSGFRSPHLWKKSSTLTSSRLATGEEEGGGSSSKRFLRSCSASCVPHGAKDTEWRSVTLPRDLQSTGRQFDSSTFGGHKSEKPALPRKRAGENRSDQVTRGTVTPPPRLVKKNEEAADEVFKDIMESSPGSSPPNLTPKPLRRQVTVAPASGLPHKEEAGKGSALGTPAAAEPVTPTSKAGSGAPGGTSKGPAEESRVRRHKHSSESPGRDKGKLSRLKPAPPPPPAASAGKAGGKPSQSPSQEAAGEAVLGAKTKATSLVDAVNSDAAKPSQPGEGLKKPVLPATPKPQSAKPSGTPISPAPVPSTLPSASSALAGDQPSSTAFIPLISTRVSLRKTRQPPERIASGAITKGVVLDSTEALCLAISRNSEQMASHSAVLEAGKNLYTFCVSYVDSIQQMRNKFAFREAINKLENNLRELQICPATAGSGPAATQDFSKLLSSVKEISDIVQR
Chain of Ras and Rab interactor 1/Tyrosine-protein kinase ABL1 (Q13671 whole entry): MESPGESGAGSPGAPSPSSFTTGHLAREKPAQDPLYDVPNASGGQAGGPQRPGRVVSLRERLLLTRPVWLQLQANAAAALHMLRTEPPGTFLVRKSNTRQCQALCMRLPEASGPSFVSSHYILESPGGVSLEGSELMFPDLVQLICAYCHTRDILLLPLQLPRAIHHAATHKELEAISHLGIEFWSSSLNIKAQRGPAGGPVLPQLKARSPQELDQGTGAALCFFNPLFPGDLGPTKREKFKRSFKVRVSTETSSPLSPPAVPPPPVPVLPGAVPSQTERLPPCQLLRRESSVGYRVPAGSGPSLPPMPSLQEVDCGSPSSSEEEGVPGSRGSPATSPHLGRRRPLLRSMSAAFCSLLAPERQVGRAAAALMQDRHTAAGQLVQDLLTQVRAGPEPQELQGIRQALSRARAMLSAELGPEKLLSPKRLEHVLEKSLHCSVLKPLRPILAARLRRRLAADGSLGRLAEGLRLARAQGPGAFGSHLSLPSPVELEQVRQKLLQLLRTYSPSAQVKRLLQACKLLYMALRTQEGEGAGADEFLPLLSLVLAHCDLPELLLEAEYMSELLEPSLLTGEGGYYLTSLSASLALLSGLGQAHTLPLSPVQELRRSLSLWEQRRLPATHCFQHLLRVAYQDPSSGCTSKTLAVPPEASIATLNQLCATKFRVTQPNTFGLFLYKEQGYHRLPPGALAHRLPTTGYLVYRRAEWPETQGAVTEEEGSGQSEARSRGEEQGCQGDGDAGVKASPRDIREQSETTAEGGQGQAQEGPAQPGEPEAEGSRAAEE

Vero [9] = assay: cells; format: functional, cell-based; settings: Chlorocebus sabaeus
Vero [10] = assay: cells; format: functional; settings: Chlorocebus sabaeus
[11] = growth suppression of beta-catenin-knockout colon cells, dose response, cell-based, HCT116, human colon tumor (AID 1045); format: functional;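 further: HCT116 colon tumor cells with beta catenin knocked out; cells exposed to compound for 60 hours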
Protein skinhead-1 = target: T4, Protein skinhead-1 (Caenorhabditis elegans, UniProt P34707); format: functional
T4 sequence (P34707 whole entry): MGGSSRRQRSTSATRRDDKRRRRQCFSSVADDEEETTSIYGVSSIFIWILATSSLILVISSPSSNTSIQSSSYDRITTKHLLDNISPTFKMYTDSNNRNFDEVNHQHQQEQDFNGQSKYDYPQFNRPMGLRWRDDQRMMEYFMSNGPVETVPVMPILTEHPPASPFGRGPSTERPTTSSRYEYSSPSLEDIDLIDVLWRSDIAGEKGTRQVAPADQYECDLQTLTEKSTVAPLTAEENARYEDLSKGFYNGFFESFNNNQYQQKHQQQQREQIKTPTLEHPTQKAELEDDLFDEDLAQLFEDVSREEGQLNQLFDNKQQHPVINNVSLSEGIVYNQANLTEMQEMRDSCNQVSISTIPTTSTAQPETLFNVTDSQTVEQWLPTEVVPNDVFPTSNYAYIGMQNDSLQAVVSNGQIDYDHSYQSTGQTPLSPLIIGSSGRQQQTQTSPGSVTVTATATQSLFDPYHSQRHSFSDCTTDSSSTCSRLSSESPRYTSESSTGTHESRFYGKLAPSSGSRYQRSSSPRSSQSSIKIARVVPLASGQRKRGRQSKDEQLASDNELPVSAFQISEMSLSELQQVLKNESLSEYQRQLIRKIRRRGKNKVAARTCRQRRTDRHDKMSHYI

[12] = growth suppression of PTEN-null colon cells, dose response, cell-based, HCT116 PTEN knockout (AID 1047); format: functional;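 further: HCT116 colon tumor cells with PTEN knocked out; cells exposed to compound for 60 hours before readout; potency for loss of cell viability measured by luminescence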
[13] = insulin promoter down-regulators in MIN6 cells, imaging, high-content screening, mouse beta cells (AID 1628); format: functional
[14] = cytotoxicity in MIN6 insulinoma cells, dose response, cytotoxicity control, cell-based, mouse insulinoma (AID 2122); format: functional;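 further: confirmatory high-throughput counterscreen run to flag cytotoxic compounds; mouse MIN-6 beta cells carrying an insulin promoter eGFP reporter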

## CCc1ccc(N2C(=O)NC(=O)/C(=C\C=C\c3ccco3)C2=O)cc1
[1]
  AC50: 7.53 µM (active)
cells
  IC50: 19.6 µM (active)
[2]
  AC50: 4.24 µM (active)
[3]
  CC50: > 40 µM (active)
[4]
  AC50: 1.96 µM (active)
A-375
  AC50: 21.6 µM (active)
[5]
  AC50: > 20 µM (inactive)

## Clc1ccc(CNc2ccnc(-c3ccc4[nH]ncc4c3)n2)cc1Cl
[6]
  AC50: 0.00784 µM (active)

## COC(=O)C[C@H]1CC[C@@H]2[C@H](COC[C@@H](O)CN2C(=O)Nc2cccc(F)c2)O1
[7]
  AC50: 13.7 µM (active)

## CCOC(=O)c1ccc(-c2ccc3ncnc(N(C)Cc4sccc4C)c3c2)o1
[6]
  AC50: 1.47 µM (active)

## CCCOc1ccc(/C=C/C(=O)N2CCN(C(=O)c3ccco3)CC2)cc1OC
[8]
  IC50: > 73.5 µM (inactive)

## COc1cc(/C=C/C(=O)c2ccc(NS(=O)(=O)c3ccc(C)cc3)cc2)cc(OC)c1O
[4]
  AC50: 2.27 µM (active)
Vero [9]
  IC50: > 25 µM (active)
Vero [10]
  CC50: 14.5 µM (active)

## Cc1ccc(OCCCCn2cnc3ccccc32)c(C)c1
[11]
  EC50: 41.2 µM (active)
Protein skinhead-1
  IC50: > 100 µM (inactive)
[12]
  EC50: 70.8 µM (active)
[13]
  IC50: 2.29 µM (active)
[14]
  IC50: 1.76 µM (active)

## Cc1occc1CNc1ncnc2ccc(-c3ccc4c(c3)OCO4)cc12
[6]
  AC50: 0.0118 µM (active)
